Experimental data as given in patent US10251902B2, “Pharmaceutical composition for treating or preventing neuropsychiatric disease, containing flavone-6-C-glucose derivatives as active ingredients” (priority 2013, dated 2019).

Assays:
[1] = system: model of memory impairment induced by scopolamine; assay: Y-maze test in scopolamine-treated mice; format: in vivo, ICR mice; settings: scopolamine 1 mg/Kg i.p.; for Alternation Behavior (%): Table 6, 8 minutes in Y-maze; for Total Entry: Table 7, total number of entry to each branch, 8 minutes
Experimental: An experiment was conducted to confirm effects of swertisin or isoorientin, and extracts of Swertia pseudochinensis or Swertia japonica containing the same prepared in Examples 1 to 3 in treating dementia by using a model of memory impairment induced by scopolamine. Detailed method follows.
(§1) Six-week old ICR mice in about 26 g to 28 g (Orientbio Inc, Republic of Korea) were received water and feed without constraint and adapted for 5 days under an environment having about 23±1° C. of temperature, about 60±10% of humidity and 12-hour light/dark cycle (animal laboratory at College of Pharmacy, Kyung-Hee University), and then used for the experiment.
A Y-maze was prepared for the experiment. The Y-maze has 3 branches and each branch has 42 cm of length, 3 cm of width and 12 cm of height. Angle between any two arms is 120 degrees and the arms were made of black polyvinyl resin.
The mice prepared in the above 1) were separated into 5 groups (10 mice per each group) comprised of drug administration groups 1 and 2, and controls 1 to 3.
The swertisin prepared in Example 3 (8 mg) was dissolved in 4 mL of 10% Tween 80 (Polyoxyethylene sorbitan monooleate: Sigma, U.S.A.), and administered to the drug administration groups 1 and 2 in an amounts of 5 mg/Kg and 10 mg/Kg respectively. Meanwhile, 5 mg/Kg of donepezil was administered to the control 1, and 0.15 mL of 10% Tween 80 was administered to the controls 2 and 3 respectively.
About 30 minutes later, 1 mg/Kg of scopolamine, which was dissolved in distilled water, was intraperitoneally administered to the drug administration groups 1 and 2, and controls 1 and 2 (Ebert, U. et al., Eur. J. Clin. Invest., 28, pp. 944-949, 1998), and 0.9% of saline solution was intraperitoneally administered to the control 3.
After 30 minutes, mice of the drug administration groups 1 and 2, and the controls 1-3 were carefully located on each branches of the Y-maze, which was divided as A, B and C respectively, and let the mice move freely for 8 minutes, and then recorded branches where mice have entered. The entrance was recorded when the entire body (i.e. including the tail) has completely entered. It was also recorded when the mice entered again into the branch that the mice have entered before.
One point was scored when the mouse sequentially entered into 3 different branches (actual alternation). Alternation behavior is defined as sequentially entering into every 3 branch, and it was converted into % via Equation 1 below (Sarter, M. et al., Psychopharmacology., 94, pp. 491-495, […]).

[2] = system: brain cells in the hippocampal region, mouse model of stroke; assay: Neurological scoring of hippocampal brain cell damage (Nissl staining) in mouse model of stroke; format: in vivo, ICR mice; settings: for Neurological Score: Table 13, score 0-3 points of hippocampal damage
Experimental: as §1, with “Seven-week” for “Six-week”, “30” for “26”, “35” for “28”
The laboratory animal in 1) was located in an operating room, adapted for 60 minutes, and anesthetized in a space providing anaesthetic gasses (nitrous oxide: 70%; oxygen: 30%; isoflurane: 2.0%). Pain reflex was examined to confirm the anesthesia. The laboratory animal was lain down straight on an operating table, and fixed its upper limb and head. Skin from the spot, where the upper limb and the center line meet, was incised as 1.5 cm to expose the both common carotid arteries by using tweezers while not damaging the tissues. Tissues and nerves attached to the exposed carotid arteries were separated and fixed with an aneurysm clip. The clip was removed after 15 minutes and reperfused, and the incised area was sutured with sutures. After the suture, the laboratory animal was immediately moved to a recovery room (32-33° C., O2 enrichment condition) and kept until it recovers from anesthesia. Observation on its weight and status was conducted once a day for 4 days after the operation.
Meanwhile, upon termination of the Y-maze test, a 4% paraformaldehyde fixation was conducted on the drug administration groups 1-3 and the control 2, and brain was excised. Paraformaldehyde-fixed brain sample was washed and section having 30 μm of thickness was prepared therefrom. The Nissl staining, which can stain a native region of brain cells in normal status, was performed. Brain cell damage in the hippocampal region of the drug administration groups 1-3, wherein the Swertia japonica extract prepared in Example 1 was administered, and the controls 1 and 2 was assessed through a neurological scoring. Pertaining to the evaluation standard, 0 point was scored when there was no damage on the hippocampal region; 1 point for 0-30% of damage; 2 points for 30-60% of damage; and 3 points for 60-100% of damage. The points were scored by 3 people who have no knowledge of the drug administration groups and the controls. Average point was used to calculate the degree of damage.
Upon termination of the Y-maze test, the drug administration groups 1-3 and the control 2 were sacrificed to prepare the brain section, and the Nissl staining was conducted to evaluate brain cell damage in the hippocampal region of the drug administration groups 1-3, wherein swertisin prepared in Example 3 was administered, and the controls 1 and 2 through the neurological scoring.

In the case of `COc1cc2oc(-c3ccc(O)cc3)cc(=O)c2c(O)c1[C@@H]1O[C@H](CO)[C@@H](O)[C@H](O)[C@H]1O` [swertisin], the “Alternation Behavior (%)” value ([1]; swertisin 5 mg/kg) is reported as 56.22 ± 12.29%, the “Alternation Behavior (%)” value ([1]; swertisin 10 mg/kg) is reported as 59.36 ± 5.653% and the “Total Entry” value ([1]; swertisin 5 mg/kg) is reported as 27.10 ± 7.795. The “Total Entry” value ([1]; swertisin 10 mg/kg) was 28.88 ± 4.155, the “Neurological Score” value ([2]; swertisin 50 mg/kg for 7 days) was 1.8130 ± 0.3750 and the “Neurological Score” value ([2]; swertisin 100 mg/kg for 7 days) was 1.2500 ± 0.2500. The “Neurological Score” value ([2]; swertisin 200 mg/kg for 7 days) was 1.1670 ± 0.5204 and the “neurological score, in words” value ([2]; swertisin 200 mg/kg (drug administration group 3) versus stroke-induced group) was “significant result to the stroke-induced group”.
